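Dose response: 5 concentrations. Exposure: 48 h. Format: 96-well plates. Endpoint: linear interpolation; highest concentration if not reached. The concentration for full growth arrest is given as TGI.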
Key:
Experiment in all cases: inhibition of tumour cell growth, NCI panel, 48 h
[1] = test system: SK-MEL-28 melanoma
[2] = test system: NCI-H23 lung
[3] = test system: DMS 273 small cell lung
[4] = test system: OVCAR-4 ovarian
[5] = test system: EKVX NSCLC
[6] = test system: ACHN renal
[7] = test system: UACC-62 melanoma
[8] = test system: CCRF-CEM leukemia
[9] = test system: KM20L2 colon
[10] = test system: SK-MEL-2 melanoma
[11] = test system: DLD-1 colon
[12] = test system: COLO 205 colon
[13] = test system: 786-0 renal
[14] = test system: HOP-18 NSCLC
[15] = test system: HOP-62 NSCLC
[16] = test system: OVCAR-3 ovarian
[17] = test system: HOP-92 NSCLC
[18] = test system: OVCAR-8 ovarian
[19] = test system: SF-268 CNS
[20] = test system: NCI-H226 lung
[21] = test system: SF-539 CNS
[22] = test system: M14 melanoma
[23] = test system: SR leukemia
[24] = test system: UACC-257 melanoma
[25] = test system: U251 CNS
[26] = test system: SNB-19 CNS
[27] = test system: SN12C renal
[28] = test system: SNB-75 CNS
[29] = test system: LXFL 529 NSCLC
[30] = test system: OVCAR-5 ovarian
[31] = test system: RPMI-8226 leukemia
[32] = test system: HL-60(TB) leukemia
[33] = test system: HCC-2998 colon
[34] = test system: IGROV1 ovarian
[35] = test system: K-562 leukemia
[36] = test system: SW-620 colon
[37] = test system: MALME-3M melanoma
[38] = test system: TK-10 renal
[39] = test system: SK-MEL-5 melanoma
[40] = test system: A549 NSCLC
[41] = test system: HCT-15 colon
[42] = test system: UO-31 renal
[43] = test system: MOLT-4 leukemia
[44] = test system: SF-295 CNS
[45] = test system: LOX IMVI melanoma
[46] = test system: M19-MEL melanoma
[47] = test system: HT29 colon
[48] = test system: KM12 colon
[49] = test system: SK-OV-3 ovarian
[50] = test system: NCI-H522 lung
[51] = test system: HCT-116 colon
[52] = test system: CAKI-1 renal
[53] = test system: DMS 114 small cell lung
[54] = test system: RXF 393 renal
[55] = test system: NCI-H460 lung
[56] = test system: SNB-78 CNS
[57] = test system: XF 498 CNS

How did the TGI [1] turn out when `COc1cc2c[n+](C)c3c4cc(OC)c(OC(C)C)cc4ccc3c2cc1OC` was run?
Its TGI is over 100 µM.

What about the TGI [2] of the same compound?
Its TGI is over 100 µM.

What about the TGI [3] of the same compound?
Its TGI is 97.6 µM.

And the TGI [4]?
Its TGI is over 100 µM.

And the TGI [5]?
The TGI was over 100 µM.

What about the TGI [6] of the same compound?
The TGI was over 100 µM.

And the TGI [7]?
Its TGI is over 100 µM.

And the TGI [8]?
The TGI was over 100 µM.

What about the TGI [9] of the same compound?
The TGI was over 100 µM.

What about the TGI [10] of the same compound?
The TGI was 40 µM.

What about the TGI [11] of the same compound?
The TGI was over 100 µM.

And the TGI [12]?
The TGI was 31.2 µM.

What about the TGI [13] of the same compound?
Its TGI is over 100 µM.

What about the TGI [14] of the same compound?
The TGI was over 100 µM.

And the TGI [15]?
Its TGI is over 100 µM.

What about the TGI [16] of the same compound?
The TGI was 63.8 µM.

And the TGI [17]?
The TGI was over 100 µM.

And the TGI [18]?
The TGI was over 100 µM.

What about the TGI [19] of the same compound?
The TGI was over 100 µM.

What about the TGI [20] of the same compound?
Its TGI is over 100 µM.

What about the TGI [21] of the same compound?
The TGI was over 100 µM.

And the TGI [22]?
Its TGI is over 100 µM.

What about the TGI [23] of the same compound?
Its TGI is over 100 µM.

What about the TGI [24] of the same compound?
The TGI was over 100 µM.

What about the TGI [25] of the same compound?
The TGI was over 100 µM.

What about the TGI [26] of the same compound?
The TGI was over 100 µM.

And the TGI [27]?
Its TGI is over 100 µM.

What about the TGI [28] of the same compound?
The TGI was over 100 µM.

And the TGI [29]?
The TGI was 76.1 µM.

And the TGI [30]?
Its TGI is over 100 µM.

What about the TGI [31] of the same compound?
The TGI was over 100 µM.

And the TGI [32]?
The TGI was 91.9 µM.

And the TGI [33]?
The TGI was over 100 µM.

And the TGI [34]?
The TGI was over 100 µM.

And the TGI [35]?
Its TGI is over 100 µM.

What about the TGI [36] of the same compound?
Its TGI is over 100 µM.

What about the TGI [37] of the same compound?
Its TGI is over 100 µM.

What about the TGI [38] of the same compound?
Its TGI is over 100 µM.

And the TGI [39]?
The TGI was over 100 µM.

What about the TGI [40] of the same compound?
The TGI was over 100 µM.

And the TGI [41]?
The TGI was over 100 µM.

What about the TGI [42] of the same compound?
Its TGI is over 100 µM.

And the TGI [43]?
Its TGI is over 100 µM.

And the TGI [44]?
Its TGI is over 100 µM.

What about the TGI [45] of the same compound?
Its TGI is over 100 µM.

And the TGI [46]?
Its TGI is 48.7 µM.

What about the TGI [47] of the same compound?
Its TGI is over 100 µM.

What about the TGI [48] of the same compound?
The TGI was over 100 µM.

And the TGI [49]?
The TGI was over 100 µM.

What about the TGI [50] of the same compound?
Its TGI is 69.3 µM.

What about the TGI [51] of the same compound?
Its TGI is over 100 µM.

And the TGI [52]?
The TGI was over 100 µM.

What about the TGI [53] of the same compound?
Its TGI is 26.7 µM.

What about the TGI [54] of the same compound?
Its TGI is over 100 µM.

And the TGI [55]?
Its TGI is over 100 µM.

What about the TGI [56] of the same compound?
Its TGI is over 100 µM.

How did the TGI [1] turn out when `Cc1cn(C2CC3C(COCN3O)O2)c(=O)[nH]c1=O` (stereo not given) was run?
Its TGI is over 100 µM.

What about the TGI [2] of the same compound?
The TGI was over 100 µM.

And the TGI [3]?
Its TGI is over 100 µM.

And the TGI [4]?
Its TGI is over 100 µM.

What about the TGI [5] of the same compound?
Its TGI is over 100 µM.

What about the TGI [6] of the same compound?
Its TGI is over 100 µM.

What about the TGI [7] of the same compound?
The TGI was over 100 µM.

What about the TGI [8] of the same compound?
The TGI was over 100 µM.

And the TGI [9]?
Its TGI is over 100 µM.

And the TGI [12]?
Its TGI is over 100 µM.

What about the TGI [13] of the same compound?
The TGI was over 100 µM.

What about the TGI [15] of the same compound?
Its TGI is over 100 µM.

What about the TGI [16] of the same compound?
The TGI was over 100 µM.

And the TGI [18]?
Its TGI is over 100 µM.

What about the TGI [19] of the same compound?
Its TGI is over 100 µM.

What about the TGI [20] of the same compound?
Its TGI is over 100 µM.

And the TGI [21]?
Its TGI is over 100 µM.

What about the TGI [22] of the same compound?
Its TGI is over 100 µM.

And the TGI [23]?
Its TGI is over 100 µM.

What about the TGI [24] of the same compound?
Its TGI is over 100 µM.

What about the TGI [25] of the same compound?
Its TGI is over 100 µM.

And the TGI [26]?
The TGI was over 100 µM.

And the TGI [57]?
Its TGI is over 100 µM.

And the TGI [27]?
The TGI was over 100 µM.

And the TGI [28]?
The TGI was over 100 µM.

And the TGI [29]?
The TGI was over 100 µM.

What about the TGI [30] of the same compound?
Its TGI is over 100 µM.

What about the TGI [31] of the same compound?
The TGI was over 100 µM.

What about the TGI [32] of the same compound?
The TGI was over 100 µM.

What about the TGI [33] of the same compound?
The TGI was over 100 µM.

And the TGI [34]?
Its TGI is over 100 µM.

And the TGI [35]?
The TGI was over 100 µM.

What about the TGI [36] of the same compound?
Its TGI is over 100 µM.

And the TGI [38]?
The TGI was over 100 µM.

And the TGI [39]?
Its TGI is over 100 µM.

What about the TGI [40] of the same compound?
Its TGI is over 100 µM.

What about the TGI [41] of the same compound?
Its TGI is over 100 µM.

And the TGI [42]?
Its TGI is over 100 µM.

And the TGI [43]?
The TGI was over 100 µM.

What about the TGI [44] of the same compound?
Its TGI is over 100 µM.

What about the TGI [45] of the same compound?
The TGI was over 100 µM.

What about the TGI [46] of the same compound?
Its TGI is over 100 µM.

And the TGI [47]?
Its TGI is over 100 µM.

What about the TGI [48] of the same compound?
Its TGI is over 100 µM.

And the TGI [49]?
Its TGI is over 100 µM.

What about the TGI [51] of the same compound?
Its TGI is over 100 µM.

And the TGI [53]?
The TGI was over 100 µM.

What about the TGI [54] of the same compound?
Its TGI is over 100 µM.

And the TGI [55]?
The TGI was over 100 µM.

From PubChem BioAssay (NCI)
